The source of these data is ChEMBL document CHEMBL1201862, “PubChem BioAssay data set” (2004).

What is called AC50 is the concentration at which the activity in the assay is half-maximal. One may read the EC50 as the concentration at which the effect is half-maximal.

Active and inactive are the calls of the source. Bounds are passed on as bounds.

For assay [1], the target named is Solute carrier family 12 member 2/member 5 (Homo sapiens, UniProt P55011+Q9H2X9). The assay can be described thus: KCC2 and NKCC1 inhibition by rubidium flux, cell-based, NKCC1 counter-screen (AID 1734). The format is functional, HEK293. In general terms: Counterscreens check selectivity or assay interference.
Assay [2] is described as follows: inhibitors of Vif binding to APOBEC3G peptide, primary screen, biochemical, TR-FRET, GST-Vif 1-94, biotin-A3G peptide, dose response retest (AID 1117319).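 Also: inhibitors lower the FRET signal by blocking Vif and A3G binding.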 The format is functional. On the technique in general: In TR-FRET formats the signal depends on donor and acceptor labels being close together.
The target in a further assay is T1, Cytochrome P450 1A2 (Homo sapiens, UniProt P05177).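 Also: PubChem cytochrome P450 panel assay, CYP1A2 panel member.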
T1 sequence (P05177 whole entry): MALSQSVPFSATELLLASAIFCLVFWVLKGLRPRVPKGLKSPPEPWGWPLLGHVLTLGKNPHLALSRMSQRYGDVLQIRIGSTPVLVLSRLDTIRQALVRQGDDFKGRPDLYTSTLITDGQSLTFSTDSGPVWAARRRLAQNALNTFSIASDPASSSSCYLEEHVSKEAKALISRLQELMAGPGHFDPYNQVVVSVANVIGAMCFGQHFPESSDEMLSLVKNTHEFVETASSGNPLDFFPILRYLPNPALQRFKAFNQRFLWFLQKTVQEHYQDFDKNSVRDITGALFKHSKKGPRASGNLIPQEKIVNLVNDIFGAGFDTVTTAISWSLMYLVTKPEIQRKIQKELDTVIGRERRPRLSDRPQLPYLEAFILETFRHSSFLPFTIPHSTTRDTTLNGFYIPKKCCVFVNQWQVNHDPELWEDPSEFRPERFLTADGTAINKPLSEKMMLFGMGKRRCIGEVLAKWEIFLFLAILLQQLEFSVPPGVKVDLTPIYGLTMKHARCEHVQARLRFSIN

A short description of assay [3]: Artemis endonuclease inhibitor potency, dose response, biochemical, fluorescence intensity (AID 720701).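 Also: Artemis endonuclease enzyme.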 The format is functional.
A further assay deals with T2, Leucine aminopeptidase (Plasmodium falciparum 3D7, UniProt Q8IL11).
T2 sequence (Q8IL11 whole entry): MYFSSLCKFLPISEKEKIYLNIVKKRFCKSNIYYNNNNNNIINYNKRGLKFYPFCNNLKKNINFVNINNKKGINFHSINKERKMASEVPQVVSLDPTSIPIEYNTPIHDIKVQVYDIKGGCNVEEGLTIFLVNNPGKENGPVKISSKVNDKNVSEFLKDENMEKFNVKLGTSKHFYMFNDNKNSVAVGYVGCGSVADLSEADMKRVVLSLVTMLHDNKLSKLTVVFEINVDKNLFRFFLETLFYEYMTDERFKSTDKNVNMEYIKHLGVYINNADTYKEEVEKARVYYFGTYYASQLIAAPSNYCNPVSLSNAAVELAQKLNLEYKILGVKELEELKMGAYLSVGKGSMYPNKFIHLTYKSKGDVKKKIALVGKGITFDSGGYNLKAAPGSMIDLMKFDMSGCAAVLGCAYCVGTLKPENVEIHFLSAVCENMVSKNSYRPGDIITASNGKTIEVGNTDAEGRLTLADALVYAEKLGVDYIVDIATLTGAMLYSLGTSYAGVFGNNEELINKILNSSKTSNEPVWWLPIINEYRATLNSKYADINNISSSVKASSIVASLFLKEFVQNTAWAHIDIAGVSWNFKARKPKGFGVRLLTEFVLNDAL
Kind of assay: P. falciparum M17LAP inhibitors, primary screen, biochemical, fluorogenic H-Leu-NHMec substrate, 1536-well (AID 1619). The format is functional.

A further assay concerns the target Cytochrome P450 3A4 (Homo sapiens, UniProt P08684).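 Also: CYP3A4 tested as one member of a cytochrome P450 panel screen.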
The target of assay [4] is T3, Low molecular weight phosphotyrosine protein phosphatase (Homo sapiens, UniProt P24666).
T3 sequence (P24666 whole entry): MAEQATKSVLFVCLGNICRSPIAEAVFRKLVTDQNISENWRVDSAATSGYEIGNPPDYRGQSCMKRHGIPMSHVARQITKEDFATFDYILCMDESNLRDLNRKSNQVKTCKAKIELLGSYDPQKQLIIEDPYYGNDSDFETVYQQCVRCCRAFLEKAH
The assay can be described thus: LMPTP phosphatase inhibitors, dose response, biochemical, OMFP substrate, fluorescence intensity, set 2 (AID 743307). The format is functional.

The nature of assay [5]: DNA binding of candidate compounds, dose response, artefact control for RAD54 inhibitor project, biochemical, fluorescence polarization, cherry-pick (AID 651673). The format is functional.
A short description of assay [6]: Counterscreen for activators of the function of SWI/SNF related, matrix associated, actin dependent regulator of chromatin, subfamily a, member 2 (SMARCA2, BRM): Luminescence-based cell-based high throughput dose response assay to identify non-selective compounds using the VP16 reporter assay. The format is functional.
In assay [7] the target is T4, DNA repair protein RAD52 homolog (Homo sapiens, UniProt P43351).
T4 sequence (P43351 whole entry): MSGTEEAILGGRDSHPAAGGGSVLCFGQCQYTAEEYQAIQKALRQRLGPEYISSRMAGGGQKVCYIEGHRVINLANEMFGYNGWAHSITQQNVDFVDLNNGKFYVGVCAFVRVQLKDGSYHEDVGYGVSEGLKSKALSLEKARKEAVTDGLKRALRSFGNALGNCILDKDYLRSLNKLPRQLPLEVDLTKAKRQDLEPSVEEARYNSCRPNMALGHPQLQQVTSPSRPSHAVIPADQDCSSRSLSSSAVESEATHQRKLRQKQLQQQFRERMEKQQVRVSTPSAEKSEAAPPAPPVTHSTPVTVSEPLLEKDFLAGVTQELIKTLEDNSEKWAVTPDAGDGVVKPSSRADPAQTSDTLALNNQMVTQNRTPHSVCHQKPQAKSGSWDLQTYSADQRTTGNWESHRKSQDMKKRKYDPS
The format is functional, biochemical.

The target in assay [8] is T3, Low molecular weight phosphotyrosine protein phosphatase. The assay can be described thus: LMPTP phosphatase inhibitors, colorimetric pNPP readout, dose response, orthogonal assay, biochemical, absorbance, pNPP substrate, LMPTP-A isoform, set 2 (AID 743308). The format is functional.
Assay [9] shares this target. The format is functional. The settings on record: read-out: IC50_Mean.
The target in assay [10] is SWI/SNF-related matrix-associated actin-dependent regulator of chromatin subfamily A member 2 (Homo sapiens, UniProt P51531). The assay can be described thus: Luminescence-based cell-based high throughput dose response assay to identify activators of the function of SWI/SNF related, matrix associated, actin dependent regulator of chromatin, subfamily a, member 2 (SMARCA2, BRM). The format is functional.

Assay [11] concerns the target T3, Low molecular weight phosphotyrosine protein phosphatase. The format is functional. The settings on record: read-out: IC50_Mean. The source holds these as a separate data set.
For assay [12], the target named is T5, DNA repair and recombination protein RAD54-like (Homo sapiens, UniProt Q92698).
T5 sequence (Q92698 whole entry): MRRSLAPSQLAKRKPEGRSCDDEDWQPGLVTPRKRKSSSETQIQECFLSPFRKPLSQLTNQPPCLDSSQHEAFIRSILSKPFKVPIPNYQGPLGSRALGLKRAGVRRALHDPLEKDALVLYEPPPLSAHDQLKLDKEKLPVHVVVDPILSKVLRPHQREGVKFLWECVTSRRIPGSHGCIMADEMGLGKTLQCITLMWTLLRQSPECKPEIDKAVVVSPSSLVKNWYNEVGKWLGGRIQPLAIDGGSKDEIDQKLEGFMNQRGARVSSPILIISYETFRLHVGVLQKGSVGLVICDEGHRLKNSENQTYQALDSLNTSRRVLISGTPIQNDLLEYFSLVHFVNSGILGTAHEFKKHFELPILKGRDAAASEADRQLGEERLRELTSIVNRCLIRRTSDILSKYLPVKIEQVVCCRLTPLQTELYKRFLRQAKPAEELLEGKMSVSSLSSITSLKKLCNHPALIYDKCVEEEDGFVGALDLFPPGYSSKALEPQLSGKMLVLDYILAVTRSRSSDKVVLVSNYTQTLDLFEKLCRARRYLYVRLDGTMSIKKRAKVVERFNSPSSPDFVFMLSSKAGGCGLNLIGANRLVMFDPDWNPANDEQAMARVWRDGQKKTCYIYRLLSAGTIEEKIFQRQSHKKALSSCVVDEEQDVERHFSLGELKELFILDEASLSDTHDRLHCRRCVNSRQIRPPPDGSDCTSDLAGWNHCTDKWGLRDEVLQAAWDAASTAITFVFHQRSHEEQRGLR
The assay can be described thus: inhibitors of human RAD54 branch migration, confirmation, biochemical, fluorescence, cherry-picked samples, dose series (AID 651657). The format is functional.

Assay [13] can be described thus: non-specific cell cytotoxicity, dose response, cytotoxicity control for PAX8 inhibitor project, plate reader, dry powder samples (AID 743021). The format is functional, cell-based.
A further assay has as its target Paired box protein Pax-8 (Homo sapiens, UniProt Q06710). The assay can be described thus: inhibitors of PAX8-driven TPO luciferase reporter, dose response, RMG-I cells, cherry-pick (AID 687027).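 Also: luciferase reporter driven by Pax8 target thyroperoxidase promoter measured by SteadyGlo luminescence.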 The format is functional, cell-based.
The nature of assay [14]: cytotoxicity in OVCAR8 ovarian cancer cells, dose response, PAX8 project, cell-based, plate reader, dry powder samples (AID 743197). The format is functional. The settings on record: OVCAR-8.
Assay [15] in a line: NIH:OVCAR-3 ovarian cancer cell cytotoxicity, dose response, PAX8 inhibitor project, plate reader, dry powder samples (AID 743044). The format is functional, cell-based.
Assay [16] in a line: IOSE-T80 ovarian epithelial cell cytotoxicity, dose response, cytotoxicity control for PAX8 inhibitor project, plate reader, dry powder samples (AID 743045). The format is functional, cell-based.
The nature of assay [17]: inhibitors of PGC1a acetylation in cells, dose response, cell-based, cherry-picked samples (AID 720514).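 Also: potency may reflect raised or lowered acetylation signal.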 The format is functional.
A short description of assay [18]: IGROV1 ovarian cancer cell cytotoxicity, dose response, PAX8 inhibitor project, plate reader, dry powder samples (AID 743043). The format is functional, cell-based. The settings on record: IGROV-1.
A short description of assay [19]: P. falciparum Dd2 growth inhibitors, dose response, SYBR Green, dry powder samples, set 9 (AID 1159568). The format is functional, cell-based.

Chain of Paired box protein Pax-8 (Q06710 whole entry): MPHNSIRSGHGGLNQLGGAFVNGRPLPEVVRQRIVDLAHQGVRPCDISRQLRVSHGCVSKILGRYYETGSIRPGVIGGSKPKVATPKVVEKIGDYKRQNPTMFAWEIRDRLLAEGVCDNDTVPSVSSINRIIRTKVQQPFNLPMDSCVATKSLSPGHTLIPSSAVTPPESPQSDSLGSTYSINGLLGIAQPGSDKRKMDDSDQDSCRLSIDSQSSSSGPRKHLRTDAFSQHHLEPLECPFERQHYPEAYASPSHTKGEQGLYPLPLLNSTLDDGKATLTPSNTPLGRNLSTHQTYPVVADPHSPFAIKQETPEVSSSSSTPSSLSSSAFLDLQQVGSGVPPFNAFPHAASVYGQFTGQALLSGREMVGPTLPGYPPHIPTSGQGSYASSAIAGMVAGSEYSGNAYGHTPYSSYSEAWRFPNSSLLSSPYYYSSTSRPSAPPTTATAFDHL
Chain of Cytochrome P450 3A4 (P08684 whole entry): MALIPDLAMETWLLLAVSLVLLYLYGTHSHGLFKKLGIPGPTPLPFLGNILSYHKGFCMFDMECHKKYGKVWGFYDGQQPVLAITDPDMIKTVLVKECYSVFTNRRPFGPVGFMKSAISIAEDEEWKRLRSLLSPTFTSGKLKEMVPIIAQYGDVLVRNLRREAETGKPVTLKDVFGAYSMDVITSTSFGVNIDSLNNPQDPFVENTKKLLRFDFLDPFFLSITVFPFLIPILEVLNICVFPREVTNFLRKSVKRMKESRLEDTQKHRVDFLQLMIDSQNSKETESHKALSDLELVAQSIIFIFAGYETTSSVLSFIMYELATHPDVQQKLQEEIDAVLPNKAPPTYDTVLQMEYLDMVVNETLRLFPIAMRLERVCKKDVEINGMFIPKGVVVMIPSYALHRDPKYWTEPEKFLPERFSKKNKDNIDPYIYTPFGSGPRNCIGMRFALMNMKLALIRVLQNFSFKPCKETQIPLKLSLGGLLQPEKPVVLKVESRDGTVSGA
Chain of SWI/SNF-related matrix-associated actin-dependent regulator of chromatin subfamily A member 2 (P51531 whole entry): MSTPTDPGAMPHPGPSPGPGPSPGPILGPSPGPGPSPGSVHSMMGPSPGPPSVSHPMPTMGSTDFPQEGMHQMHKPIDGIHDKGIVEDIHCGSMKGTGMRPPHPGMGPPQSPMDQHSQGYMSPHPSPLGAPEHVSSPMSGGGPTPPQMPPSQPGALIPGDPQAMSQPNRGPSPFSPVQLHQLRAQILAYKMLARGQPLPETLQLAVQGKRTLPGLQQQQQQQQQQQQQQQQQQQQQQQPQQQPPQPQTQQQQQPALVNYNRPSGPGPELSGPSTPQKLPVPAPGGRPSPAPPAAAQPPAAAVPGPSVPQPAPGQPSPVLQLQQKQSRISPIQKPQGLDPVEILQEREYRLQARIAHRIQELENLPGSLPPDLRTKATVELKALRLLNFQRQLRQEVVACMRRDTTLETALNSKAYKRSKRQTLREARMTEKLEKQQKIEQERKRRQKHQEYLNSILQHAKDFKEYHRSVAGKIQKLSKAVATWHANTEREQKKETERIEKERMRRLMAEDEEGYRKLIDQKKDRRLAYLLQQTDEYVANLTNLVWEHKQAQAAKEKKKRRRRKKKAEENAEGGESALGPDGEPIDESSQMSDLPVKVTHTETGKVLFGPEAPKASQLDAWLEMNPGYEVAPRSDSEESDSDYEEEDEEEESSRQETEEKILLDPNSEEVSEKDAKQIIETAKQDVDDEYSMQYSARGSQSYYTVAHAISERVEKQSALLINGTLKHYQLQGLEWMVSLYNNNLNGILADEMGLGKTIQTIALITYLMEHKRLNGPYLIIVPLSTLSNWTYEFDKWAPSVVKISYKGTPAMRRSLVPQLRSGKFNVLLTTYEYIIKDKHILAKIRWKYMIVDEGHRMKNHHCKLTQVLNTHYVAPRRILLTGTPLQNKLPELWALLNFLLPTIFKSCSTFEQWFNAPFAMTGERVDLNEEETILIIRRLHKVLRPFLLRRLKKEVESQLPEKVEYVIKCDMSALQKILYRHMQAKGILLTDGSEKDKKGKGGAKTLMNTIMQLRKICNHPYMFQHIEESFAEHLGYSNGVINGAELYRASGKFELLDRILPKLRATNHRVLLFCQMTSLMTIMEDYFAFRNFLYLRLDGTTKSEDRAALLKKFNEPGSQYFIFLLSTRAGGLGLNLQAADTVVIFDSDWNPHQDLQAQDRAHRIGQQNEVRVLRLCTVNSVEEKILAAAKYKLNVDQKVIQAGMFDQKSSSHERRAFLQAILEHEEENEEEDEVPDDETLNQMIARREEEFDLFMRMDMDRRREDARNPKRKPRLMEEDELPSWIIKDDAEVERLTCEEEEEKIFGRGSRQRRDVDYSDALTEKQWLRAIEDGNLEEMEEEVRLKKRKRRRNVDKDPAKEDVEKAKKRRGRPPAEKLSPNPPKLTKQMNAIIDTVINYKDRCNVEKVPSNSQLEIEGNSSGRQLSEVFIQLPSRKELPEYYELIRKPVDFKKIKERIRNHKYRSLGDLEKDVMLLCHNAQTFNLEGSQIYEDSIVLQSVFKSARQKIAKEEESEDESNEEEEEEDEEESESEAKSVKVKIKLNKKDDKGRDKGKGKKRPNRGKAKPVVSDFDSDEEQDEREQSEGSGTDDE

In the case of `CC1Cc2ccccc2N1C(=O)c1ccc(N2CCCC2)c([N+](=O)[O-])c1` (centres undefined), the IC50 in assay [1] is 51 µM (active).

Take `Cc1cccc(N2CCN(CC(=O)NCC3CCCCC3)CC2)c1C`: the IC50 in assay [2] is > 100 µM (active).

On to `Cc1sc(NC(=O)C2C3CCC(O3)C2C(=O)O)c(C(=O)OC(C)C)c1-c1ccc(Cl)cc1` (centres undefined), for which the figures for the AC50 on Cytochrome P450 1A2 and at Cytochrome P450 3A4 were 22.4 µM (inconclusive) and 15.8 µM (inconclusive), respectively. Moreover, the IC50 is > 20 µM (inactive) in assay [3] and 10.1 µM (active) at Leucine aminopeptidase.

As to `c1ccc(-c2cc(NCCN3CCCCC3)c3ccccc3n2)cc1`, the IC50 is 3.7 µM (active) in [4], 8.37 µM (active) in [8], 5.8 µM (active) in assay [9] and 3.49 µM (active) in assay [11]. For the same molecule, the concentration at half-maximal activity (AC50) in [5] was 58.8 µM (active); in [7], < 3.63 µM (active); in assay [12], 4.86 µM (active). The values for the EC50 in assay [6] and in assay [10] were > 91.2 µM (inactive) and 10.9 µM (inactive), respectively.

Regarding `Fc1cccc(CN2C[C@@H]3N[C@H](C2)[C@@H]3c2ccc(-c3cccc(F)c3)cc2)c1`, the AC50 was 19.5 µM (active) in assay [13]; 23.4 µM (active) on Paired box protein Pax-8; 27 µM (active) in assay [14]; 22.1 µM (active) in assay [15]; 27.6 µM (active) in assay [16]; 4.43 µM (active) in assay [17].

As for `C[C@@H]1CN([C@@H](C)CO)C(=O)Cc2cc(NC(=O)C3CCCCC3)ccc2O[C@H]1CN(C)Cc1ccc(Cl)c(Cl)c1`, the AC50 at Paired box protein Pax-8 is 5.39 µM (active); in [18], 28.6 µM (active); in [19], 2.76 µM (active).
